In paper PMC11317440, “Soloxolone para-methylanilide effectively suppresses aggressive phenotype of glioblastoma cells including TGF-β1-induced glial-mesenchymal transition in vitro and inhibits growth of U87 glioblastoma xenografts in mice” (Frontiers in Pharmacology, 2024):

How the values were obtained:
TGF-β1-induced U87 cells = assay: Cell morphology (cell size) of TGF-β1-induced U87 cells; format: cell-based, human; conditions: TGF-β1 50 ng/mL, non-toxic concentrations, 48 h
Experimental: (§1) After seeding at a concentration of 5,000 cells/well in triplicate in 96-well plates and incubating overnight, U87 and U118 cells were exposed to TGF-β1 (50 ng/mL) and non-toxic concentrations of soloxolone amides for 48 h. An EVOS XL Core microscope with an integrated CMOS camera (Thermo Fisher Scientific, USA) was then used to examine cell morphology at ×20 magnification. Aspect ratio (AR) and area were quantified for at least 150 cells in each experimental group using ImageJ software (NIH, USA).

EPNT-5 cells = assay: MTT assay 72 h, 7 and TMZ alone and combined, synergy (HSA), EPNT-5; format: cell-based, mouse
Experimental: (§2) The drug synergy score was calculated for the dose-response matrix according to the highest single-agent (HSA) model using the SynergyFinder + web application (https://www.synergyfinder.org/).

TGF-β1-treated U87 cells [1] = assay: Adhesion of U87 cells to culture plastic (TrypLE treatment assay); format: cell-based, human; conditions: TGF-β1 50 ng/mL, non-toxic concentrations, 48 h
Experimental: Adhesiveness of glioblastoma cells was assessed by two independent methods. First, cell adhesion to culture plastic was tested using a trypsin treatment assay, as previously described ([Sava et al., 2004]; [Mazuryk et al., 2015]; [van Dijk et al., 2017]). Briefly, U87 and U118 cells (10,000 cells per well of a 96-well plate, n = 4) were cultured with TGF-β1 (50 ng/mL) and non-toxic concentrations of soloxolone amides for 48 h and then treated with a 1:20 dilution of TrypLE Express (Gibco, USA) in PBS for 3 min at 37°C. Non-adherent cells were then removed by a triple PBS wash, and the remaining adherent cells were fixed with 4% formaldehyde and stained with crystal violet dye (0.1% w/v). Images were captured using the iBright 1,500 Imaging System (Invitrogen, USA), and the cell-occupied area was calculated using ImageJ. Alternatively, the number of adherent cells was quantified using the MTT assay.

[2] = tested on: N-cadherin, fibronectin, Slug, OLIG2 expression in TGF-β1-induced U87 cells; assay: qRT-PCR of GMT markers in U87 cells; format: cell-based, human; conditions: 48 h
Experimental: Total RNA was extracted using TRIzol Reagent (Ambion, Austin, TX, USA) according to the manufacturer’s protocol. Subsequently, the first strand cDNA was synthesized from 4 μg of total RNA using an oligo (dT)18 primers and M-MuLV-RH revertase (Biolabmix, Novosibirsk, Russia). Finally, RT-qPCR was performed using specific primers (Table 1) and BioMaster SYBR Blue reagent kit (Biolabmix, Novosibirsk, Russia). Relative expression was determined by normalization to the housekeeping gene HPRT using the 2^−ΔΔCT method (Livak and Schmittgen 2001).

U87 primary tumorspheres = assay: Primary tumorsphere growth, U87; format: cell-based, human
Experimental: For evaluation of spheroid growth, the bottom of the 96-well plate was covered with 1% agarose for non-adherent conditions. U87 cells (5,000 cells/well) were then seeded and allowed to form spheroids for 24 h, after which increasing concentrations of compound 7 (0–1,000 nM) were added (n = 8). Every other day of the 10-day experiment, fresh medium supplemented with compound 7 was added to half of the medium, and the spheroids were photographed using a camera-equipped ZEISS Primo Vert microscope (Carl Zeiss Microscopy GmbH, Jena, Germany). To assess the formation of secondary tumorspheres, cells were dissociated from primary tumorspheres after 4 days of compound 7 stimulation using TrypLE Express and were then seeded into agarose-coated 96-well plates (n = 8). On day 3, the resulting secondary spheroids were examined microscopically. Primary and secondary spheroid areas were quantified using ImageJ.

U118 glioblastoma cells = assay: MTT cell viability assay, U118 cells, 48 h; format: cell-based; conditions: Homo sapiens
Experimental: (§3) Cells were seeded in quadruplicate in 96-well plates at 10,000 cells/well and allowed to adhere overnight. The medium was then replaced with serum-free DMEM containing increasing concentrations of soloxolone amides for 48 h. After incubation, 3-(4,5-dimethylthiazol-2-yl)-2,5-diphenyltetrazolium bromide (MTT dye) was added at a final concentration of 0.5 mg/mL and left for 2 h. The resulting formazan crystals were dissolved in DMSO and the optical density was measured at 570 nm using a Multiscan RC plate reader (Thermo LabSystems, Helsinki, Finland).

[3] = tested on: non-malignant human hFF3 fibroblasts; assay: MTT cell viability assay, hFF3 fibroblasts, 48 h; format: cell-based; conditions: 7 at 400 nM
Experimental: as §3

U118 cells = assay: MTT assay 72 h, 7 and TMZ alone and combined, synergy (HSA), U118; format: cell-based, human
Experimental: as §2

[4] = tested on: TGF-β1-induced U118 cells; assay: Cell morphology (aspect ratio) of TGF-β1-induced U118 cells; format: cell-based, human; conditions: TGF-β1 50 ng/mL, 7 50 nM, 48 h
Experimental: as §1

[5] = Toxicity assessment in U87 glioblastoma-bearing mice; format: in vivo, athymic nude mice; conditions: 7 20 mg/kg i.p. or TMZ 10 mg/kg i.p. injected alone
Experimental: During the experiment, the general status and body weight of the animals were monitored. At the end of the experiment, livers and kidneys were collected and organ indices were calculated as (organ weight/body weight) × 100%, followed by the normalization of organ indices of experimental mice to organ indices of control mice.

TGF-β1-treated U87 cells [6] = assay: Transwell migration (xCELLigence), U87 cells; format: cell-based, human; conditions: U87, 7 50 nM, TGF-β1 50 ng/mL, at 72 h
Experimental: To perform transwell migration, U87 cells were pretreated with TGF-β1 (50 ng/mL) and compound 7 (50 nM) for 48 h. Subsequently, 250,000 cells were placed in the upper chamber of the CIM-16 xCELLigence plate in serum-free DMEM supplemented with compound 7 and TGF-β1 (n = 4), while the lower chamber was filled with DMEM containing 10% FBS. Cell migration was monitored for 72 h using the xCELLigence RTCA DP system (ACEA Biosciences Inc., San Diego, CA, USA). The electrodes placed under the porous membrane detected changes in resistance, which were then converted into cell indices proportional to the number of migrating cells.

[7] = U87 primary tumorspheres, 7 1,000 nM

Cc1ccc(NC(=O)[C@@]2(C)CC[C@]3(C)CC[C@]4(C)[C@H](C(=O)C=C5[C@@]6(C)C=C(C#N)C(=O)C(C)(C)C6CC[C@]54C)[C@@H]3C2)cc1 (stereo partly shown) [compound 7, N-p-tolyl-2-cyano-3,12-dioxo-18βH-olean-9(11),1(2)-dien-30-amide]
effect on size/morphology of TGF-β1-induced U87 cells (TGF-β1-induced U87 cells): restored their morphological characteristics to the control cells
effect of 7 on TMZ cytotoxicity in EPNT-5 cells (EPNT-5 cells; 7 at 50 nM): antagonistic effect
IC50 (EPNT-5 cells; Mus musculus, MTT): 199 nM
adhesion of TGF-β1-treated U87 cells to culture plastic (MTT readout) (TGF-β1-treated U87 cells [1]): one of the most pronounced pro-adhesive effects
adhesion of TGF-β1-treated U87 cells to culture plastic (crystal violet) (TGF-β1-treated U87 cells [1]): restoring it to control levels
upregulation of OLIG2 ([2]; TGF-β1-induced U87 cells, 7 50 nM): 2 fold
reduction of N-cadherin expression compared to TGF-β1-stimulated cells ([2]; U87, 7 50 nM, TGF-β1 50 ng/mL): 67.6%
reduction of Slug expression compared to TGF-β1-stimulated cells ([2]; U87, 7 50 nM, TGF-β1 50 ng/mL): 35.8%
reduction of fibronectin expression compared to TGF-β1-stimulated cells ([2]; U87, 7 50 nM, TGF-β1 50 ng/mL): 39.2%
increase of spheroid growth compared to control (U87 primary tumorspheres; U87 primary tumorspheres, 7 50 nM, p-value <0.05): 21%
increase of spheroid growth compared to control (U87 primary tumorspheres; U87 primary tumorspheres, 7 100 nM, not statistically significant): 10.4%
spheroid growth (U87 primary tumorspheres; U87 primary tumorspheres, 7 450 nM): stopping it after 4 days
reduction of tumorsphere size compared to control by day 10 (U87 primary tumorspheres; [7]): 28.6%
spheroid growth (U87 primary tumorspheres; [7]): completely blocking it
concentration causing a large-scale reduction of spheroids (U87 primary tumorspheres; U87 tumorspheres): 1 µM
IC50 (U118 glioblastoma cells): 310 nM
death of hFF3 cells [3]: about 21%
IC50 (U118 cells; Homo sapiens, MTT): 169 nM
reduction of the cytotoxic effect by NAC (U118 cells; U118, NAC 2 mM, TMZ 125 μM, 7 100 nM): 80.3%
shape (aspect ratio) of TGF-β1-induced U118 cells [4]: restored the shape of TGF-β1-induced cells to that of the control cells
toxic effects (body weight and organ indices) [5]: no toxic effects
suppression of transwell migration compared to cells stimulated with TGF-β1 alone (TGF-β1-treated U87 cells [6]): 1.7 fold
